Measured values: ChEMBL document CHEMBL4825673, “Total and Semisyntheses of Polymyxin Analogues with 2-Thr or 10-Thr Modifications to Decipher the Structure-Activity Relationship and Improve the Antibacterial Activity” (J Med Chem, 2021)
Converted amounts (≈) assume the structure as drawn.

What was measured:
Type in all cases: functional
Settings in all cases: read-out: MIC100
Escherichia coli = test: Antibacterial activity against Escherichia coli assessed as inhibition of bacterial growth incubated for 24 hrs by broth microdilution method
Moraxella catarrhalis = test: Antibacterial activity against Moraxella catarrhalis assessed as inhibition of bacterial growth incubated for 24 hrs by broth microdilution method
Acinetobacter baumannii = test: Antibacterial activity against Acinetobacter baumannii assessed as inhibition of bacterial growth incubated for 24 hrs by broth microdilution method
Klebsiella pneumoniae = test: Antibacterial activity against Klebsiella pneumoniae assessed as inhibition of bacterial growth incubated for 24 hrs by broth microdilution method
Pseudomonas aeruginosa [1] = test: Antibacterial activity against Pseudomonas aeruginosa PAO1 assessed as inhibition of bacterial growth incubated for 24 hrs by broth microdilution method
Pseudomonas aeruginosa [2] = test: Antibacterial activity against Pseudomonas aeruginosa assessed as inhibition of bacterial growth incubated for 24 hrs by broth microdilution method

| Structure (SMILES) | MIC (Escherichia coli) | MIC (Moraxella catarrhalis) | MIC (Acinetobacter baumannii) | MIC (Klebsiella pneumoniae) | MIC (Pseudomonas aeruginosa [1]) | MIC (Pseudomonas aeruginosa [2]) |
| --- | --- | --- | --- | --- | --- | --- |
| CC(C)CCCCC(=O)N[C@@H](CCN)C(=O)N[C@H](C(=O)N[C@@H](CCN)C(=O)N[C@H]1CCNC(=O)[C@H]([C@@H](C)O)NC(=O)[C@H](CCN)NC(=O)[C@H](CCN)NC(=O)[C@H](CC(C)C)NC(=O)[C@@H](Cc2ccccc2)NC(=O)[C@H](CCN)NC1=O)[C@@H](C)OC(=O)[C@@H](N)CC(C)C | 0.25 µg/mL (≈ 0.192 µM) | > 16 µg/mL | 0.06 µg/mL (≈ 0.0461 µM) | 1 µg/mL (≈ 0.768 µM) | 4 µg/mL (≈ 3.07 µM) | 0.125 µg/mL (≈ 0.096 µM) |
| CC(C)CCCCC(=O)N[C@@H](CCN)C(=O)N[C@H](C(=O)N[C@@H](CCN)C(=O)N[C@H]1CCNC(=O)[C@H]([C@@H](C)OC(=O)CN)NC(=O)[C@H](CCN)NC(=O)[C@H](CCN)NC(=O)[C@H](CC(C)C)NC(=O)[C@@H](Cc2ccccc2)NC(=O)[C@H](CCN)NC1=O)[C@@H](C)OC(=O)CN | 0.25 µg/mL (≈ 0.192 µM) | > 64 µg/mL | 0.125 µg/mL (≈ 0.0959 µM) | 1 µg/mL (≈ 0.767 µM) | 1 µg/mL (≈ 0.767 µM) | 0.25 µg/mL (≈ 0.192 µM) |
| CC(C)CCCCC(=O)N[C@@H](CCN)C(=O)N[C@H](C(=O)N[C@@H](CCN)C(=O)N[C@H]1CCNC(=O)[C@H]([C@@H](C)O)NC(=O)[C@H](CCN)NC(=O)[C@H](CCN)NC(=O)[C@H](CC(C)C)NC(=O)[C@@H](Cc2ccccc2)NC(=O)[C@H](CCN)NC1=O)[C@@H](C)OC(=O)[C@@H](N)CO | 0.25 µg/mL (≈ 0.196 µM) | 32 µg/mL (≈ 25.1 µM) | 0.125 µg/mL (≈ 0.0979 µM) | 1 µg/mL (≈ 0.783 µM) | 1 µg/mL (≈ 0.783 µM) | 0.25 µg/mL (≈ 0.196 µM) |
| CC[C@H](C)CCCCC(=O)N[C@@H](CCN)C(=O)N[C@H](C(=O)N[C@@H](CCN)C(=O)N[C@H]1CCNC(=O)[C@H]([C@@H](C)O)NC(=O)[C@H](CCN)NC(=O)[C@H](CCN)NC(=O)[C@H](CC(C)C)NC(=O)[C@@H](Cc2ccccc2)NC(=O)[C@H](CCN)NC1=O)[C@@H](C)OC(=O)CN | 0.25 µg/mL (≈ 0.198 µM) | > 64 µg/mL | 0.125 µg/mL (≈ 0.0992 µM) | 0.5 µg/mL (≈ 0.397 µM) | 4 µg/mL (≈ 3.17 µM) | 0.125 µg/mL (≈ 0.0992 µM) |
| CC(C)CCCCC(=O)N[C@@H](CCN)C(=O)N[C@H](C(=O)N[C@@H](CCN)C(=O)N[C@H]1CCNC(=O)[C@H]([C@@H](C)O)NC(=O)[C@H](CCN)NC(=O)[C@H](CCN)NC(=O)[C@H](CC(C)C)NC(=O)[C@@H](Cc2ccccc2)NC(=O)[C@H](CCN)NC1=O)[C@@H](C)OC(=O)[C@@H](N)CCCCN | 0.5 µg/mL (≈ 0.379 µM) | > 64 µg/mL | 0.125 µg/mL (≈ 0.0949 µM) | 4 µg/mL (≈ 3.04 µM) | 2 µg/mL (≈ 1.52 µM) | 0.25 µg/mL (≈ 0.19 µM) |
| CC(C)CCCCC(=O)N[C@@H](CCN)C(=O)N[C@H](C(=O)N[C@@H](CCN)C(=O)N[C@H]1CCNC(=O)[C@H]([C@@H](C)O)NC(=O)[C@H](CCN)NC(=O)[C@H](CCN)NC(=O)[C@H](CC(C)C)NC(=O)[C@@H](Cc2ccccc2)NC(=O)[C@H](CCN)NC1=O)[C@@H](C)OC(=O)[C@@H](N)Cc1c[nH]cn1 | 0.5 µg/mL (≈ 0.377 µM) | 8 µg/mL (≈ 6.03 µM) | 0.125 µg/mL (≈ 0.0942 µM) | 4 µg/mL (≈ 3.02 µM) | 2 µg/mL (≈ 1.51 µM) | 0.5 µg/mL (≈ 0.377 µM) |
| CC(C)CCCCC(=O)N[C@@H](CCN)C(=O)N[C@H](C(=O)N[C@@H](CCN)C(=O)N[C@H]1CCNC(=O)[C@H]([C@@H](C)O)NC(=O)[C@H](CCN)NC(=O)[C@H](CCN)NC(=O)[C@H](CC(C)C)NC(=O)[C@@H](Cc2ccccc2)NC(=O)[C@H](CCN)NC1=O)[C@@H](C)OC(=O)[C@@H](N)CCCNC(=N)N | 0.5 µg/mL (≈ 0.372 µM) | > 16 µg/mL | 0.25 µg/mL (≈ 0.186 µM) | 1 µg/mL (≈ 0.743 µM) | 2 µg/mL (≈ 1.49 µM) | 0.5 µg/mL (≈ 0.372 µM) |
| CCCCCCCC(=O)N[C@@H](CCN)C(=O)N[C@H](C(=O)N[C@@H](CCN)C(=O)N[C@H]1CCNC(=O)[C@H](CS)NC(=O)[C@H](CCN)NC(=O)[C@H](CCN)NC(=O)[C@H](CC(C)C)NC(=O)[C@@H](Cc2ccccc2)NC(=O)[C@H](CCN)NC1=O)[C@@H](C)O | 2 µg/mL (≈ 1.68 µM) | 4 µg/mL (≈ 3.36 µM) | 0.25 µg/mL (≈ 0.21 µM) | 2 µg/mL (≈ 1.68 µM) | 2 µg/mL (≈ 1.68 µM) | 0.06 µg/mL (≈ 0.0504 µM) |
| CC(C)CCCCC(=O)N[C@@H](CCN)C(=O)N[C@H](C(=O)N[C@@H](CCN)C(=O)N[C@H]1CCNC(=O)[C@H]([C@@H](C)O)NC(=O)[C@H](CCN)NC(=O)[C@H](CCN)NC(=O)[C@H](CC(C)C)NC(=O)[C@@H](Cc2ccccc2)NC(=O)[C@H](CCN)NC1=O)[C@@H](C)OC(=O)CN | 0.25 µg/mL (≈ 0.201 µM) | > 16 µg/mL | 0.06 µg/mL (≈ 0.0481 µM) | 1 µg/mL (≈ 0.802 µM) | 2 µg/mL (≈ 1.6 µM) | 0.25 µg/mL (≈ 0.201 µM) |
| CC(C)CCCCC(=O)N[C@@H](CCN)C(=O)N[C@H](C(=O)N[C@@H](CCN)C(=O)N[C@H]1CCNC(=O)[C@H]([C@@H](C)O)NC(=O)[C@H](CCN)NC(=O)[C@H](CCN)NC(=O)[C@H](CC(C)C)NC(=O)[C@@H](Cc2ccccc2)NC(=O)[C@H](CCN)NC1=O)[C@@H](C)OC(=O)[C@@H](N)C(C)C | 0.5 µg/mL (≈ 0.388 µM) | > 32 µg/mL | 1 µg/mL (≈ 0.776 µM) | 4 µg/mL (≈ 3.1 µM) | 2 µg/mL (≈ 1.55 µM) | 0.5 µg/mL (≈ 0.388 µM) |
